Results: patent US20060110451A1, “Formulations of [1,4]diazepino[6,7,1-IJ]quinoline derivatives” (priority 2004, published 2006)
Like-named read-outs stand apart in the source and are kept apart here.

Experiment: Ascending multiple dose pharmacokinetics of enteric coated capsules in healthy subjects
Format: in vivo, human
Details: for Tmax / half-life / AUC(0-t) / Cmax / AUC(0-inf): human, plasma
Method: Ascending multiple doses of 25, 50, 75, 100, 150, and 250 mg Compound A.HCl were administered as twice-daily regimen (q12h) for 14 days in cohorts of 8 healthy subjects (6 active and 2 placebo). Blood samples for Compound A.HCl analysis were obtained on days 1 and 14 within 2 hours of test article administration and at various time points from 0.5 to 48 hours after test article administration. Doses were administered orally after an overnight fast of at least 10 hours on these 2 days. Trough PK samples were collected on days 7, 10, and 12 to assess whether steady-state had been reached.
A total of 48 subjects contributed pharmacokinetic data for this analysis. […] FIGS. 4A and 4B show the relationship between Cmax vs. dose and AUC vs. dose, respectively.

Cl.c1cc2c3c(c1)[C@H]1CCC[C@H]1CN3CCNC2 [Compound A.HCl, (9aR,12aS)-4,5,6,7,9,9a,10,11,12,12a-decahydrocyclopenta[c][1,4]diazepino[6,7,1-ij]quinoline hydrochloride]
steady-state Cl/F lower in comparison to the lower dose groups (250 mg q12h dose): 54-60% | time of minor secondary peak (day 14 (steady state), most subjects, all dose groups): 24 to 28 h | dose-proportionality of single dose and steady-state AUC and Cmax (dose range 25 to 150 mg q12h): approximately linear dose-proportionality | Tmax (oral, healthy subjects, single and multiple dose administration, enteric-coated formulation, 25-250 mg, read-out: mean Tmax): 4 to 6 h | half-life (oral, multiple dose, read-out: mean elimination t1/2): 6 to 8 h | half-life (oral, single dose, read-out: mean elimination t1/2): 8 to 11 h | AUC(0-t) (po, 25 mg, healthy subjects, multiple oral doses (q12 h) 25 mg, day 14, read-out: AUCss (AUC0-12) (Geom. Mean)): 8 ng·h/mL | AUC(0-t) (po, 25 mg, healthy subjects, multiple oral doses (q12 h) 25 mg, day 14, read-out: AUCss (AUC0-12) (Mean)): ~8.73 ng·h/mL | Cmax (po, 25 mg, healthy subjects, multiple oral doses (q12 h) 25 mg, day 14, read-out: Cmax (Geom. Mean)): 1.16 ng/mL | Cmax (po, 25 mg, healthy subjects, multiple oral doses (q12 h) 25 mg, day 14, read-out: Cmax (Mean)): 1.22 ng/mL | Tmax (po, 25 mg, healthy subjects, multiple oral doses (q12 h) 25 mg, day 14, read-out: Tmax (Geom. Mean)): 3.7 h | Tmax (po, 25 mg, healthy subjects, multiple oral doses (q12 h) 25 mg, day 14, read-out: Tmax (Mean)): 4 h | half-life (po, 25 mg, healthy subjects, multiple oral doses (q12 h) 25 mg, day 14, read-out: t1/2 (Geom. Mean) (converted)): 6.25 h | half-life (po, 25 mg, healthy subjects, multiple oral doses (q12 h) 25 mg, day 14, read-out: t1/2 (Mean) (converted)): 6.35 h | Cmax (po, 25 mg, healthy subjects, single oral dose 25 mg, day 1, read-out: Cmax (Geom. Mean)): 0.81 ng/mL | Cmax (po, 25 mg, healthy subjects, single oral dose 25 mg, day 1, read-out: Cmax (Mean)): 0.87 ng/mL | Tmax (po, 25 mg, healthy subjects, single oral dose 25 mg, day 1, read-out: Tmax (Geom. Mean)): 5 h | Tmax (po, 25 mg, healthy subjects, single oral dose 25 mg, day 1, read-out: Tmax (Mean)): 5.2 h | AUC(0-t) (po, 50 mg, healthy subjects, multiple oral doses (q12 h) 50 mg, day 14, read-out: AUCss (AUC0-12) (Geom. Mean)): 25.3 ng·h/mL | AUC(0-t) (po, 50 mg, healthy subjects, multiple oral doses (q12 h) 50 mg, day 14, read-out: AUCss (AUC0-12) (Mean)): ~26.5 ng·h/mL | Cmax (po, 50 mg, healthy subjects, multiple oral doses (q12 h) 50 mg, day 14, read-out: Cmax (Geom. Mean)): 3.27 ng/mL | Cmax (po, 50 mg, healthy subjects, multiple oral doses (q12 h) 50 mg, day 14, read-out: Cmax (Mean)): 3.39 ng/mL | Tmax (po, 50 mg, healthy subjects, multiple oral doses (q12 h) 50 mg, day 14, read-out: Tmax (Geom. Mean)): 5.6 h | Tmax (po, 50 mg, healthy subjects, multiple oral doses (q12 h) 50 mg, day 14, read-out: Tmax (Mean)): 5.7 h | half-life (po, 50 mg, healthy subjects, multiple oral doses (q12 h) 50 mg, day 14, read-out: t1/2 (Geom. Mean) (converted)): 7.58 h | half-life (po, 50 mg, healthy subjects, multiple oral doses (q12 h) 50 mg, day 14, read-out: t1/2 (Mean) (converted)): 7.64 h | AUC(0-inf) (po, 50 mg, healthy subjects, single oral dose 50 mg, day 1, read-out: AUC0-∞ (Geom. Mean)): 22.8 ng·h/mL | AUC(0-inf) (po, 50 mg, healthy subjects, single oral dose 50 mg, day 1, read-out: AUC0-∞ (Mean)): 23.5 ng·h/mL | Cmax (po, 50 mg, healthy subjects, single oral dose 50 mg, day 1, read-out: Cmax (Geom. Mean)): 2.29 ng/mL | Cmax (po, 50 mg, healthy subjects, single oral dose 50 mg, day 1, read-out: Cmax (Mean)): 2.35 ng/mL | Tmax (po, 50 mg, healthy subjects, single oral dose 50 mg, day 1, read-out: Tmax (Geom. Mean)): 5 h | Tmax (po, 50 mg, healthy subjects, single oral dose 50 mg, day 1, read-out: Tmax (Mean)): 5.3 h | half-life (po, 50 mg, healthy subjects, single oral dose 50 mg, day 1, read-out: t1/2 (Geom. Mean) (converted)): 9.69 h | half-life (po, 50 mg, healthy subjects, single oral dose 50 mg, day 1, read-out: t1/2 (Mean) (converted)): 10.7 h | AUC(0-t) (po, 75 mg, healthy subjects, multiple oral doses (q12 h) 75 mg, day 14, read-out: AUCss (AUC0-12) (Geom. Mean)): 24.1 ng·h/mL | AUC(0-t) (po, 75 mg, healthy subjects, multiple oral doses (q12 h) 75 mg, day 14, read-out: AUCss (AUC0-12) (Mean)): ~24.9 ng·h/mL | Cmax (po, 75 mg, healthy subjects, multiple oral doses (q12 h) 75 mg, day 14, read-out: Cmax (Geom. Mean)): 2.92 ng/mL | Cmax (po, 75 mg, healthy subjects, multiple oral doses (q12 h) 75 mg, day 14, read-out: Cmax (Mean)): 3.05 ng/mL | Tmax (po, 75 mg, healthy subjects, multiple oral doses (q12 h) 75 mg, day 14, read-out: Tmax (Geom. Mean)): 6.3 h | Tmax (po, 75 mg, healthy subjects, multiple oral doses (q12 h) 75 mg, day 14, read-out: Tmax (Mean)): 6.3 h | half-life (po, 75 mg, healthy subjects, multiple oral doses (q12 h) 75 mg, day 14, read-out: t1/2 (Geom. Mean) (converted)): 6.38 h | half-life (po, 75 mg, healthy subjects, multiple oral doses (q12 h) 75 mg, day 14, read-out: t1/2 (Mean) (converted)): 6.45 h | AUC(0-inf) (po, 75 mg, healthy subjects, single oral dose 75 mg, day 1, read-out: AUC0-∞ (Geom. Mean)): 16.8 ng·h/mL | AUC(0-inf) (po, 75 mg, healthy subjects, single oral dose 75 mg, day 1, read-out: AUC0-∞ (Mean)): 16.9 ng·h/mL | Cmax (po, 75 mg, healthy subjects, single oral dose 75 mg, day 1, read-out: Cmax (Geom. Mean)): 1.56 ng/mL | Cmax (po, 75 mg, healthy subjects, single oral dose 75 mg, day 1, read-out: Cmax (Mean)): 1.6 ng/mL | Tmax (po, 75 mg, healthy subjects, single oral dose 75 mg, day 1, read-out: Tmax (Geom. Mean)): 5.3 h | Tmax (po, 75 mg, healthy subjects, single oral dose 75 mg, day 1, read-out: Tmax (Mean)): 5.5 h | half-life (po, 75 mg, healthy subjects, single oral dose 75 mg, day 1, read-out: t1/2 (Geom. Mean) (converted)): 7.93 h
